Experimental data: ChEMBL document CHEMBL6134873, “Identification of Novel Cyclobutane-Based Derivatives as Potent Acetyl-CoA Carboxylase Allosteric Inhibitors for Nonalcoholic Steatohepatitis Drug Discovery” (J Med Chem, 2025); call rule not given here
pIC50: −log10 of the molar value. Blank lines part the entries; values can stand above or below the compound they belong to.

Tests used:
[1] = Inhibition of ACC2 in rat skeletal muscle using KH[14C]O3 as substrate measured after 7 mins in presence of ATP by liquid scintillation counter analysis
Acetyl-CoA carboxylase 2 = Acetyl-CoA carboxylase 2 (Homo sapiens, UniProt O00763)
Description: Inhibition of recombinant human ACC2 using acetyl-Co A as substrate incubated for 60 mins in presence of ATP by ADP-Glo assay

Acetyl-CoA carboxylase 1 = Acetyl-CoA carboxylase 1 (Homo sapiens, UniProt Q13085)
Description: Inhibition of recombinant human ACC1 using acetyl-Co A as substrate incubated for 60 mins in presence of ATP by ADP-Glo assay

[2] = AUC (0 to t) in Sprague-Dawley rat at 1 mg/kg, iv measured for 0.25 to 24 hrs by LC-MS/MS analysis; format: ADME, organism-based; conditions: in vivo, time 0.25-24 hrs
[3] = MRT (0 to t) in Sprague-Dawley rat at 1 mg/kg, iv measured for 0.25 to 24 hrs by LC-MS/MS analysis; format: ADME, organism-based; conditions: in vivo, time 0.25-24 hrs
[4] = Tmax in Sprague-Dawley rat at 3 mg/kg, po measured for 0.25 to 24 hrs by LC-MS/MS analysis; format: ADME, organism-based; conditions: in vivo, time 0.25-24 hrs
[5] = MRT (0 to t) in Sprague-Dawley rat at 3 mg/kg, po measured for 0.25 to 24 hrs by LC-MS/MS analysis; format: ADME, organism-based; conditions: in vivo, time 0.25-24 hrs
[6] = Oral bioavailability in Sprague-Dawley rat at 3 mg/kg measured for 0.25 to 24 hrs by LC-MS/MS analysis; format: ADME, organism-based; conditions: in vivo, time 0.25-24 hrs
[7] = Volume of distribution in Sprague-Dawley rat at 1 mg/kg, iv measured for 0.25 to 24 hrs by LC-MS/MS analysis; format: ADME, organism-based; conditions: in vivo, time 0.25-24 hrs
[8] = Half life in Sprague-Dawley rat at 1 mg/kg, iv measured for 0.25 to 24 hrs by LC-MS/MS analysis; format: ADME, organism-based; conditions: in vivo, time 0.25-24 hrs
[9] = Half life in Sprague-Dawley rat at 3 mg/kg, po measured for 0.25 to 24 hrs by LC-MS/MS analysis; format: ADME, organism-based; conditions: in vivo, time 0.25-24 hrs
[10] = AUC (0 to t) in Sprague-Dawley rat at 3 mg/kg, po measured for 0.25 to 24 hrs by LC-MS/MS analysis; format: ADME, organism-based; conditions: in vivo, time 0.25-24 hrs
[11] = Clearance in Sprague-Dawley rat at 1 mg/kg, iv measured for 0.25 to 24 hrs by LC-MS/MS analysis; format: ADME, organism-based; conditions: in vivo, time 0.25-24 hrs
[12] = Cmax in Sprague-Dawley rat at 3 mg/kg, po measured for 0.25 to 24 hrs by LC-MS/MS analysis; format: ADME, organism-based; conditions: in vivo, time 0.25-24 hrs
Cytochrome P450 2C8 = target: T1, Cytochrome P450 2C8 (Homo sapiens, UniProt P10632); assay: Inhibition of CYP2C8 (unknown origin); format: ADME
T1 sequence (P10632 whole entry): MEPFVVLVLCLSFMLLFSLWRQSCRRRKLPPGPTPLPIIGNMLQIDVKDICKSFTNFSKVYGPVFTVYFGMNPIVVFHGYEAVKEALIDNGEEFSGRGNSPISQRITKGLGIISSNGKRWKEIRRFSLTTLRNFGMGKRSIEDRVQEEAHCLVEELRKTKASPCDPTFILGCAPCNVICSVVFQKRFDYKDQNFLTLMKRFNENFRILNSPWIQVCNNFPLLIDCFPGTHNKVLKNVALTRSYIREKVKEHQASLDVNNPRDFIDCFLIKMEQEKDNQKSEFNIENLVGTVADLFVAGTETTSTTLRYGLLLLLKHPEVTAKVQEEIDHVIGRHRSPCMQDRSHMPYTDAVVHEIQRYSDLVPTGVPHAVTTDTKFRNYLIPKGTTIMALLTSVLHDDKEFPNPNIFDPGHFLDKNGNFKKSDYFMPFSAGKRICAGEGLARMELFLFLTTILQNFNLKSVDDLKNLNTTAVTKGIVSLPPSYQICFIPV

[13] = Intrinsic clearance in monkey liver microsomes; format: ADME, Macaca mulatta, Microsome; conditions: rhesus monkey, read-out: CLH
[14] = Intrinsic clearance in human liver microsomes; format: ADME, Microsome; conditions: read-out: CLH
[15] = Protein binding in human plasma; format: ADME, cell-free; conditions: read-out: PPB (converted)
Cytochrome P450 2D6 = Cytochrome P450 2D6 (Homo sapiens, UniProt P10635); assay: Inhibition of CYP2D6 (unknown origin); format: ADME
Cytochrome P450 2C9 = Cytochrome P450 2C9 (Homo sapiens, UniProt P11712); assay: Inhibition of CYP2C9 (unknown origin); format: ADME
[16] = target: Voltage-gated inwardly rectifying potassium channel KCNH2 (Homo sapiens, UniProt Q12809); assay: Inhibition of hERG; format: toxicity
[17] = Intrinsic clearance in dog liver microsomes; format: ADME, Canis lupus familiaris, Microsome; conditions: read-out: CLH
[18] = Intrinsic clearance in rat liver microsomes; format: ADME, Microsome; conditions: read-out: CLH
Cytochrome P450 1A2 = target: T2, Cytochrome P450 1A2 (Homo sapiens, UniProt P05177); assay: Inhibition of CYP1A2 (unknown origin); format: ADME
T2 sequence (P05177 whole entry): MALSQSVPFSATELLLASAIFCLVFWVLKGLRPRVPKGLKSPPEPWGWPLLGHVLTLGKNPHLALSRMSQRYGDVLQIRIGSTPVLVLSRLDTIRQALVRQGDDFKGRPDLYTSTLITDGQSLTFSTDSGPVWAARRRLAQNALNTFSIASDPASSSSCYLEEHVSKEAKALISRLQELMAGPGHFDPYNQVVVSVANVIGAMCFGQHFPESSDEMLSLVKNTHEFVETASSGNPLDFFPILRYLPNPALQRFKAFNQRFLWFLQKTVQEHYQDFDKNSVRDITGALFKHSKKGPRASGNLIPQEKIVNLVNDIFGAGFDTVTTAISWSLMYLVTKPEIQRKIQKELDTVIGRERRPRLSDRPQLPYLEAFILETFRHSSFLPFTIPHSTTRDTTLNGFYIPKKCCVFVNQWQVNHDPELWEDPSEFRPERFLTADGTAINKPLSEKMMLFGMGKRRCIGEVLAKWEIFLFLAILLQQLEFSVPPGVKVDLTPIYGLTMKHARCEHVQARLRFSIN

[19] = Intrinsic clearance in mouse liver microsomes; format: ADME, Microsome; conditions: read-out: CLH
Cytochrome P450 2B6 = target: T3, Cytochrome P450 2B6 (Homo sapiens, UniProt P20813); assay: Inhibition of CYP2B6 (unknown origin); format: ADME
T3 sequence (P20813 whole entry): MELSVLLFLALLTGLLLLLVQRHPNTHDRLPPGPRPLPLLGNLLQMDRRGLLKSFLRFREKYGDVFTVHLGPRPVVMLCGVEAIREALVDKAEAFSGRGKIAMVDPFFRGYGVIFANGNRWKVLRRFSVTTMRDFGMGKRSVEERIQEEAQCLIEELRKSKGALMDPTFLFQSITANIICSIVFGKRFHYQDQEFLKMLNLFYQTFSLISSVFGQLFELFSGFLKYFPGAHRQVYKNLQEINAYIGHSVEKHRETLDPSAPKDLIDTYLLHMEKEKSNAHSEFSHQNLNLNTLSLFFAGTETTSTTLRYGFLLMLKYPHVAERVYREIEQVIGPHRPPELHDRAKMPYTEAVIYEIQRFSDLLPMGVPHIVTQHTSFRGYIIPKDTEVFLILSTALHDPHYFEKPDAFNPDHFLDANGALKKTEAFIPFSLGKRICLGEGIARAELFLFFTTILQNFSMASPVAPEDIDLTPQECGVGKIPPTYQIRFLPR

[20] = Inhibition of fatty acid synthesis in human HepG2 cells preincubated for 1.5 hrs followed by [14C] acetate addition measured after 1.5 hrs by liquid scintillation counter analysis; format: functional, cell-based
Cytochrome P450 3A4 [21] = target: T4, Cytochrome P450 3A4 (Homo sapiens, UniProt P08684); assay: Inhibition of CYP3A4 (unknown origin) using testosterone as substrate; format: ADME
[22] = Biodistribution in 12 hr-fasted male wild-type Sprague-Dawley rat assessed as increase in ratio of drug concentration in liver/plasma at 3 mg/kg, po measured for 0.25 to 4 hrs by LC-MS/MS analysis; format: ADME, organism-based; conditions: in vivo, time 0.25-4 hrs
Cytochrome P450 2C19 = Cytochrome P450 2C19 (Homo sapiens, UniProt P33261); assay: Inhibition of CYP2C19 (unknown origin); format: ADME
[23] = Protein binding in rat plasma; format: ADME, cell-free; conditions: read-out: PPB (converted)
Cytochrome P450 3A4 [24] = target: T4, Cytochrome P450 3A4; assay: Inhibition of CYP3A4 (unknown origin) using midazolam as substrate; format: ADME
[25] = Biodistribution in liver of 12 hr-fasted male wild-type Sprague-Dawley rat at 3 mg/kg, po measured after 4 hrs by LC-MS/MS analysis; format: ADME, organism-based; conditions: in vivo

Acetyl-CoA carboxylase 2, sequence (O00763 whole entry): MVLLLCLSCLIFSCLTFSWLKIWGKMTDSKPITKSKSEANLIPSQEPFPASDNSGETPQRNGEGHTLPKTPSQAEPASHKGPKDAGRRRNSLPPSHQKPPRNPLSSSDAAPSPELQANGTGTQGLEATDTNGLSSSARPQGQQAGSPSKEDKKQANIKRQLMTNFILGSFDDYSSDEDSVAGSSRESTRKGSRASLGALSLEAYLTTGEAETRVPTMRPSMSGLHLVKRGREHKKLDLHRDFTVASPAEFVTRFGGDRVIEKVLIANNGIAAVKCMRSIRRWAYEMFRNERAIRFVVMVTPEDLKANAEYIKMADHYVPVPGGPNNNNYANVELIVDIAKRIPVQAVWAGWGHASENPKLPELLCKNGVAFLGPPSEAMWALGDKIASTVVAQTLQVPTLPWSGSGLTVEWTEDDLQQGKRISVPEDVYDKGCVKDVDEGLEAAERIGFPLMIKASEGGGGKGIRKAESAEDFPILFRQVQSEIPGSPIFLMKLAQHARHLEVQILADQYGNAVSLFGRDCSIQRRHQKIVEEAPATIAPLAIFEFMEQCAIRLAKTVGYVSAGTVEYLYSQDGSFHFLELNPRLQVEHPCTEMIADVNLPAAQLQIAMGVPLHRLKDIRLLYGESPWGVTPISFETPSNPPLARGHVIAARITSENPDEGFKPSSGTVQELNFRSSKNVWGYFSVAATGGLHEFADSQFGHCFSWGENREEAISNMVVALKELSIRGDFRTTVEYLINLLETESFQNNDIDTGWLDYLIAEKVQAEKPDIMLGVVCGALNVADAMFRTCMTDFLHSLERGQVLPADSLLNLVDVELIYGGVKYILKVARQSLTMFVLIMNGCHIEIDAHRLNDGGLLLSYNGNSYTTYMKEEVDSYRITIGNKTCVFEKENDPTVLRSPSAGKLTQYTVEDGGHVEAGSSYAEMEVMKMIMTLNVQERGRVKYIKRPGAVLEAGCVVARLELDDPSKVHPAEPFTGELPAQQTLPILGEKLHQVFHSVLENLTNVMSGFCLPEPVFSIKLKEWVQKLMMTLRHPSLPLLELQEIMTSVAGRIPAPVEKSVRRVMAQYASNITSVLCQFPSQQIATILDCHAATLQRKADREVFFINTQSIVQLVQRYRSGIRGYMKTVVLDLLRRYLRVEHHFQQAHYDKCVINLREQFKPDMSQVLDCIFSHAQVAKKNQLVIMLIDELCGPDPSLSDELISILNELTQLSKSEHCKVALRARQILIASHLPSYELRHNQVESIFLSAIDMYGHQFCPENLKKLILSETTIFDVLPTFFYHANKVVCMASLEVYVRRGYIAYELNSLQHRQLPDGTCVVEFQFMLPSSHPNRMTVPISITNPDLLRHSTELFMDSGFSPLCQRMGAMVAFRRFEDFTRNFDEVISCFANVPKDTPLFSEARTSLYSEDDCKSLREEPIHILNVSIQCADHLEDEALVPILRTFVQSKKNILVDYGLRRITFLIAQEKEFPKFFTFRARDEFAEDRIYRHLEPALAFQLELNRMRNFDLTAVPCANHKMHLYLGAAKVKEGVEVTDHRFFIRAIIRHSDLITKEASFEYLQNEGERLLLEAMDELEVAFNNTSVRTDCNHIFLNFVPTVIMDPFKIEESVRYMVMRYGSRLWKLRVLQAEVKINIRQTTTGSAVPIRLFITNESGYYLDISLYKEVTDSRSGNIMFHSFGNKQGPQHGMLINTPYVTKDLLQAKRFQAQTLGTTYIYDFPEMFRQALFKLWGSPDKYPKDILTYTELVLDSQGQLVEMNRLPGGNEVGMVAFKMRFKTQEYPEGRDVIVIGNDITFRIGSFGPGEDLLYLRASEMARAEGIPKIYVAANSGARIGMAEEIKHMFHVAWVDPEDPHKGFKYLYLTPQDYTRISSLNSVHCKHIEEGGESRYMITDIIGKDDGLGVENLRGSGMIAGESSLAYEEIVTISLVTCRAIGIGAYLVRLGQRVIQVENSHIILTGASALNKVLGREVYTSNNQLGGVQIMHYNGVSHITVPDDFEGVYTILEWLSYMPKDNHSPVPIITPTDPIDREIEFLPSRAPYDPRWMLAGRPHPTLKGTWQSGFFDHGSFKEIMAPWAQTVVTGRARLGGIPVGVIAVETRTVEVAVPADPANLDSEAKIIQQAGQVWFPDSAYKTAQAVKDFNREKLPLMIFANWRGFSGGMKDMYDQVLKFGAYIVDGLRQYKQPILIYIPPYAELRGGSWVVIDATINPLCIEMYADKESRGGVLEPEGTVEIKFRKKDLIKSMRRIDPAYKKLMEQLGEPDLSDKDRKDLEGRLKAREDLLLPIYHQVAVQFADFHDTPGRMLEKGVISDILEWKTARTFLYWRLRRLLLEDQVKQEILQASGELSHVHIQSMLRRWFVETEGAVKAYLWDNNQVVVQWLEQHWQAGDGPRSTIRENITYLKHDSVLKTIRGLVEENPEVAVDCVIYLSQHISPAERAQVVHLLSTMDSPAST
T4 sequence (P08684 whole entry): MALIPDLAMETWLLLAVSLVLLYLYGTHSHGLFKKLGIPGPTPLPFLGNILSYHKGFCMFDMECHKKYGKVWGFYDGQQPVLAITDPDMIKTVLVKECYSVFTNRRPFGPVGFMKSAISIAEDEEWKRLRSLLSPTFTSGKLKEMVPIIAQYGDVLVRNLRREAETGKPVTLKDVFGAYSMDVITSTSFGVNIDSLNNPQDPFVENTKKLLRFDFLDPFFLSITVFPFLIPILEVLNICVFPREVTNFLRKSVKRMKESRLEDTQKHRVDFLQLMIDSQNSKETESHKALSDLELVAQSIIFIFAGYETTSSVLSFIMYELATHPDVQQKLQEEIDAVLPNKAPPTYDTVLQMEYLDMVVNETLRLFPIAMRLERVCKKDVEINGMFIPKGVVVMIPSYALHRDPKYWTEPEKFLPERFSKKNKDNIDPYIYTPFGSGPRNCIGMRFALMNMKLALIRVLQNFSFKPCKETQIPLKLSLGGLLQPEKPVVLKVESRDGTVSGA
Cytochrome P450 2C19, sequence (P33261 whole entry): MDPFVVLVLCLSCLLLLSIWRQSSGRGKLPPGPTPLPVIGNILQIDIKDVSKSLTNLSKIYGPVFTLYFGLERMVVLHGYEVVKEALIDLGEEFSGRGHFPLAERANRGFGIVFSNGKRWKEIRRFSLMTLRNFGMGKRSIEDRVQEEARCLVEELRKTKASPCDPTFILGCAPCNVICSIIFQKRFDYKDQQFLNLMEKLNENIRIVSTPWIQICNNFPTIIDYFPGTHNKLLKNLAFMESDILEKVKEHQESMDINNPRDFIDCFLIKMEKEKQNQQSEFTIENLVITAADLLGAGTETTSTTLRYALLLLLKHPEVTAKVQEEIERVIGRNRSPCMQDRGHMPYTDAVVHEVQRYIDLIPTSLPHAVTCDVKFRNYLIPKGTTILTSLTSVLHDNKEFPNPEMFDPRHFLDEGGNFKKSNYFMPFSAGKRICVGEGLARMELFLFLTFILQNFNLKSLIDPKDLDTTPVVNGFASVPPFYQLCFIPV
Cytochrome P450 2D6, sequence (P10635 whole entry): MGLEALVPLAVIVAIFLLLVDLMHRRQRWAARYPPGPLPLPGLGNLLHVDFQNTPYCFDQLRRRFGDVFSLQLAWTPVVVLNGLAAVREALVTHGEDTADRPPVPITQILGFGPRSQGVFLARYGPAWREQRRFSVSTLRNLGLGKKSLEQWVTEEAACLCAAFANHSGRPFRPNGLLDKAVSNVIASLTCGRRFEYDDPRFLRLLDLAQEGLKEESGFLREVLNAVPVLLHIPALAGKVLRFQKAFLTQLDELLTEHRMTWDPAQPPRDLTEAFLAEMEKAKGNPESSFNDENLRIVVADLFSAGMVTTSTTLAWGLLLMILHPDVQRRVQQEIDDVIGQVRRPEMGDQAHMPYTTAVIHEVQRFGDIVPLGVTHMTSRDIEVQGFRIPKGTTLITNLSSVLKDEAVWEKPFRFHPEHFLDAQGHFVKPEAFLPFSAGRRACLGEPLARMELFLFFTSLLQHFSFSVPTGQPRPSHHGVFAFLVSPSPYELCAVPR
Cytochrome P450 2C9, sequence (P11712 whole entry): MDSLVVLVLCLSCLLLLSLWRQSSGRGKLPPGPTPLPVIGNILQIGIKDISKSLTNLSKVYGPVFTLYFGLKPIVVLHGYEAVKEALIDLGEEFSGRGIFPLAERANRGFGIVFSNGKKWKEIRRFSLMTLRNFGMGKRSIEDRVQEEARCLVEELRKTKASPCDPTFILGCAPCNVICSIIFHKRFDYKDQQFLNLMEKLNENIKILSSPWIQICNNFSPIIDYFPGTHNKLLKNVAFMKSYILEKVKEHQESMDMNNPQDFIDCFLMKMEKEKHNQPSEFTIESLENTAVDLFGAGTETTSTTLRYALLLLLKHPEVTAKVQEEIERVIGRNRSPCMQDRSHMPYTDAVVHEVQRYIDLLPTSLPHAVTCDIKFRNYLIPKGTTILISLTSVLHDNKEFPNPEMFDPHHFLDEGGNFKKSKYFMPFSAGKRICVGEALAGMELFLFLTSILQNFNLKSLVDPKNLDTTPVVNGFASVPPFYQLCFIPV

SMILES: O=C(c1c2ccccc2cc2ccccc12)N1CCC(N2CCC[C@@H](C(=O)N3CCOCC3)C2)CC1
pIC50 [1]: 7.21

SMILES: COc1ccccc1[C@H](Cn1c(=O)n(C2CN(C(=O)N3CC(C)(O)C3)C2)c(=O)c2c(C)c(-c3ncco3)sc21)OC1CCOCC1
pIC50 (Acetyl-CoA carboxylase 1): 8.02

SMILES: COc1ccccc1[C@H](Cn1c(=O)n(C2CC(F)(F)C2)c(=O)c2c(C)c(-c3ncco3)sc21)OC1CCOCC1
pIC50 (Acetyl-CoA carboxylase 1): 8.03

SMILES: COc1ccccc1[C@H](Cn1c(=O)n(C2CN(C(=O)N3CC(C)(C(=O)O)C3)C2)c(=O)c2c(C)c(-c3ncco3)sc21)OC1CCOCC1
pIC50 (Acetyl-CoA carboxylase 1): 7.92

SMILES: COc1ccccc1[C@H](Cn1c(=O)n(C2CN(C(=O)c3ccccn3)C2)c(=O)c2c(C)c(-c3ncco3)sc21)OC1CCOCC1
pIC50 (Acetyl-CoA carboxylase 2): 8.19
pIC50 (Acetyl-CoA carboxylase 1): 8.68

SMILES: COc1ccccc1[C@H](Cn1c(=O)n(-c2c(C)ccn3ccnc23)c(=O)c2c(C)c(-c3ncco3)sc21)OC1CCOCC1
pIC50 (Acetyl-CoA carboxylase 1): 7.28

SMILES: COc1ccccc1[C@H](Cn1c(=O)n([C@H]2C[C@@H](C(=O)O)C2)c(=O)c2c(C)c(-c3ncco3)sc21)OC1CCOCC1
AUC(0-t) [2]: 80.8 ng·h/mL
MRT last [3]: 6 min
Tmax [4]: 36 min
MRT last [5]: 24 min
pIC50 (Acetyl-CoA carboxylase 2): 8.29
bioavailability [6]: 5.7%
Vd [7]: 2.6 L/kg
half-life [8]: 12 min
half-life [9]: 24 min
pIC50 (Acetyl-CoA carboxylase 1): 9.10
AUC(0-t) [10]: 13.8 ng·h/mL
clearance [11]: 180 mL/min/kg
Cmax [12]: 21.3 ng/mL

SMILES: COc1ccccc1[C@H](Cn1c(=O)n(C2CN(C(=O)c3ccccc3)C2)c(=O)c2c(C)c(-c3ncco3)sc21)OC1CCOCC1
pIC50 (Acetyl-CoA carboxylase 1): 8.27

Continued by rising pIC50 (Acetyl-CoA carboxylase 1), values first:

pIC50 (Acetyl-CoA carboxylase 2): 8.21
pIC50 (Acetyl-CoA carboxylase 1): 8.82
SMILES: COc1ccccc1[C@H](Cn1c(=O)n(C2CN(C(=O)c3ncc[nH]3)C2)c(=O)c2c(C)c(-c3ncco3)sc21)OC1CCOCC1

pIC50 (Acetyl-CoA carboxylase 2): 7.78
pIC50 (Acetyl-CoA carboxylase 1): 8.86
SMILES: COc1ccccc1[C@H](Cn1c(=O)n([C@H]2C[C@](C)(C(=O)O)C2)c(=O)c2c(C)c(-c3ncco3)sc21)OC1CCOCC1

pIC50 (Acetyl-CoA carboxylase 2): 8.04
pIC50 (Acetyl-CoA carboxylase 1): 8.96
SMILES: COc1ccccc1[C@H](Cn1c(=O)n(C2CN(C(=O)N3CCOCC3)C2)c(=O)c2c(C)c(-c3ncco3)sc21)OC1CCOCC1

pIC50 (Acetyl-CoA carboxylase 1): 8.98
SMILES: COc1ccccc1[C@H](Cn1c(=O)n([C@H]2C[C@](C)(C(N)=O)C2)c(=O)c2c(C)c(-c3ncco3)sc21)OC1CCOCC1

pIC50 (Acetyl-CoA carboxylase 1): 9.02
SMILES: COc1ccccc1[C@H](Cn1c(=O)n(C2CN(CC(F)(F)F)C2)c(=O)c2c(C)c(-c3ncco3)sc21)OC1CCOCC1

pIC50 (Acetyl-CoA carboxylase 1): 9.07
SMILES: COc1ccccc1[C@H](Cn1c(=O)n(CC2(C(=O)O)CC2)c(=O)c2c(C)c(-c3ncco3)sc21)OC1CCOCC1

pIC50 (Cytochrome P450 2C8): < 4.52
CLint scaled [13]: < 13 mL/min/kg
CLint scaled [14]: 6 mL/min/kg
fraction unbound [15]: 0.015
AUC(0-t) [2]: 409 ng·h/mL
pIC50 (Cytochrome P450 2D6): < 4.52
MRT last [3]: 102 min
pIC50 (Cytochrome P450 2C9): < 4.52
Tmax [4]: 6 min
MRT last [5]: 246 min
CLint scaled [17]: 7.2 mL/min/kg
pIC50 (Acetyl-CoA carboxylase 2): 8.29
CLint scaled [18]: 4.3 mL/min/kg
pIC50 (Cytochrome P450 1A2): < 4.52
CLint scaled [19]: < 38 mL/min/kg
pIC50 (Cytochrome P450 2B6): < 4.52
bioavailability [6]: 51.1%
Vd [7]: 21.4 L/kg
pIC50 (Cytochrome P450 3A4 [21]): < 4.52
Drug uptake [22]: Active
pIC50 (Cytochrome P450 2C19): < 4.52
half-life [8]: 426 min
fraction unbound [23]: 0.014
pIC50 (Cytochrome P450 3A4 [24]): < 4.52
pIC50 (Acetyl-CoA carboxylase 1): 9.31
Drug uptake [25]: Active
AUC(0-t) [10]: 628 ng·h/mL
clearance [11]: 33.3 mL/min/kg
Cmax [12]: 213 ng/mL
SMILES: COc1ccccc1[C@H](Cn1c(=O)n(C(C)(C)C(=O)O)c(=O)c2c(C)c(-c3ncco3)sc21)OC1CCOCC1 [FIRSOCOSTAT]
pIC50 [16]: < 4.52
pIC50 [20]: 8.32
